Results published in patent publication US20050059641A1, “Compositions and methods for treating and preventing cancer using analogs of vitamin D” (Aphios Corporation, priority 2003, published 2005).

Assays:
[1] = tested on: MCF-7 cells (breast cancer cells); assay: 3H-thymidine incorporation assay, MCF-7; format: cell-based; settings: 10^−6M
Source text: (§1) It is well known that secretory epithelial cells are the main sites for the development of cancers of the breast, prostate and various other organs.
It is well-established that the biological properties of 1,25(OH)2D3 and its analogs are mediated by their interaction with VDR.
(§2) In a study, investigators compared the growth-inhibitory effects of 25-OH-D3-3-BE and 1,25(OH)2D3 in several VDR-positive epithelial cells, e.g. keratinocytes (primary skin cells), MCF-7 cells (breast cancer cells), hormone-sensitive LNCaP and hormone-refractory PC3 cells (prostate cancer cells), and PZ-HPV-7 (papillovirus immortalized normal prostate cells) by using ^3H-thymidine incorporation assays (FIGS. 14-19).

[2] = tested on: PZ-HPV-7 (papillovirus immortalized normal prostate cells); assay: 3H-thymidine incorporation assay, PZ-HPV-7; format: cell-based; settings: PZ-HPV-7 cells, 10^−6M
Procedure: as §1
The inventors further studied the effect of 1,25(OH)2D3-3-BE on LNCAP cells (most closely resembling human hormone-sensitive prostate cancer) and PZ-HPV-7 cells (immortalized normal prostate cells). The cells were treated with ethanol or 10^−6M of either 1,25(OH)2D3 or 1,25(OH)2D3-3-BE for 16 hours and the effect on proliferation was determined by ^3H-thymidine incorporation assays as described earlier. The viable cell count was determined by Methylene blue assay. The Methylene blue assay is a simple colorimetric method that is widely used to determine the viable cell count.
as §2

[3] = in vivo toxicity study in CD-1 mice; parameters: Serum Calcium on day 12: unit not given here; settings: for Body Weight on Day 12 / Serum Calcium on day 12 / Body Weight On Day 0: CD-1 mice; for Body Weight On Day 0: beginning of the experiment
Source text: Investigators completed an in vivo study to determine the toxicity of 25-OH-D3-3-BE at various doses in CD-1 mice. The animals (average weight ˜30 gms) were maintained with normal chow and water ad libitum. […] At the end of the experiment the animals were lightly anesthetized and blood collected after decapitation for serum calcium-analysis. […] Frequency of administration, body weights at the beginning and at the end of the experiment and serum calcium values are given in the accompanying Table 1.

[4] = tested on: PC-3 cells; assay: DNA-fragmentation analysis; format: cell-based, human; settings: 250 nM, 10 hours
Procedure: (a) DNA-fragmentation analysis: PC-3 cells (2×10^6) were treated with 250 nM of 1,25(OH)2D3, 25-OH-D3 or 25-OH-D3-3-BE for 10 hours. The cells were harvested and lysed in 0.5 ml lysis buffer (20 mM Tris-HCl, 10 mM EDTA, 0.5% Triton X-100, pH 8.0), and DNA was extracted using phenol-chloroform procedure. The DNA was resuspended in 0.1 ml of 20 mM Tris-HCl, pH 8 and treated with Rnase, followed by electrophoresis on 1.2% agarose gel in TAE. The DNA was visualized under UV light after ethidinium bromide staining.

[5] = tested on: caspase-8; assay: Caspase Colorimetric assay, caspase-8; format: cell-based; settings: PC3 cells, 10 nM, 14 hours
Procedure: (§3) Caspase-activity: There are several markers for apoptosis, and caspase activity is one of them; and their levels normally go up under apoptotic conditions. Investigators determined the levels of caspases 3, 8 and 9 by Caspase Colorimetric assay kits from R&D Systems (Minneapolis, Minn.) and used according to the manufacturer's instructions. Briefly, PC3 cells (1×10^6) were treated with 10 nM of 1,25(OH)2D3, 25-OH-D3 or 25-OH-D3-3-BE for 14 hours in culture medium (DMEM, 10% FBS and antibiotics). The cells were collected by centrifugation at 1000 RPM for 5 min. The cell pellet was lysed with lysis buffer, and the lysate was incubated on ice for 10 min. and centrifuged for 10,000 RPM for 5 min. Protein was estimated using Bradford protein estimation kit (BioRad). The enzymatic reactions were carried out in 96 well plate. For each reaction 100 μg lysate protein in 50 μl was incubated with 50 μl of 2×reaction buffer and 5 μl of caspase-3 or caspase-8 or caspase-9 calorimetric substrate for 2 h at 37° C. The absorbance was determined at 405 nm.

[6] = tested on: caspase-9; assay: Caspase Colorimetric assay, caspase-9; format: cell-based; settings: PC3 cells, 10 nM, 14 hours
Procedure: as §3

SMILES: C=C1CCC(OC(=O)CBr)CC1=CC=C1CCCC2(C)C1CCC2C(C)CCCC(C)(C)O (centres unmarked) [25-OH-D3-3-BE, 25-hydroxyvitamin D3-3-bromoacetate]
- growth-inhibitory effect (3H-thymidine incorporation) [1]: antiproliferative
- lethal to the cells [1]: not
- growth-inhibitory effect (3H-thymidine incorporation) [2]: antiproliferative
- lethal to the cells [2]: not
- Body Weight on Day 12 ([3]; 3.3 μg/kg intraperitoneally): 30.36 ± 1 grams
- Serum Calcium on day 12 ([3]; 3.3 μg/kg intraperitoneally): 9.1 ± 0.2
- Body Weight On Day 0 ([3]; 3.3 μg/kg intraperitoneally): 29 ± 0.6 grams
- Body Weight on Day 12 ([3]; 33 μg/kg intraperitoneally): 32.9 ± 1.4 grams
- Serum Calcium on day 12 ([3]; 33 μg/kg intraperitoneally): 9.4 ± 0.2
- Body Weight On Day 0 ([3]; 33 μg/kg intraperitoneally): 31 ± 0.83 grams
- Body Weight on Day 12 ([3]; 166.7 μg/kg intraperitoneally): 30.7 ± 1 grams
- Serum Calcium on day 12 ([3]; 166.7 μg/kg intraperitoneally): 9.7 ± 0.1
- Body Weight On Day 0 ([3]; 166.7 μg/kg intraperitoneally): 30.55 ± 0.7 grams
- toxicity in vivo ([3]; mouse, dose as high as 166.7 μg/Kg): non-toxic
- DNA fragmentation (apoptosis) [4]: DNA fragmentation was observed
- Caspase-8 induction [5]: induced
- Caspase-9 induction [6]: induced
